Data taken from PMC5907918 (Biochemistry, 2017).

Experiments:
human Sts-1HP [1] = biological target: T1, human Sts-1HP (Homo sapiens, UniProt Q8TF42); test: Steady state kinetics of phosphatase substrates, human Sts-1HP; assay type: biochemical; settings: substrate as labelled, 298 K
human Sts-2HP = biological target: T2, human Sts-2HP (Homo sapiens, UniProt P57075); test: Steady state kinetics of phosphatase substrates, human Sts-2HP; assay type: biochemical; settings: substrate as labelled, 298 K
T2 sequence (P57075 393-657): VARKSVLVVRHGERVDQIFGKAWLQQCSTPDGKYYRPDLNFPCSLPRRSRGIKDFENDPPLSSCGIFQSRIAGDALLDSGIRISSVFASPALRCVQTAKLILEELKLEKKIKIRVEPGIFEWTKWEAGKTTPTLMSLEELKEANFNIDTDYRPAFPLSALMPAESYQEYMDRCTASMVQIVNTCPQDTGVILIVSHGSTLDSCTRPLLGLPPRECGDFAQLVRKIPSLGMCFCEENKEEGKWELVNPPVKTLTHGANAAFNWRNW

human Sts-1HP [2] = biological target: T1, human Sts-1HP; test: Inhibition of Sts-1HP phosphatase activity; assay type: biochemical; settings: known phosphatase inhibitors tested
PTP-1B = settings: cited from earlier work
Full-length Sts-1 = Full-length Sts-1 (Homo sapiens, UniProt Q8TF42); test: Steady state kinetics of phosphatase substrates, full-length Sts-1; assay type: biochemical; settings: substrate as labelled, 298 K
[3] = biological target: histidine phosphatase domain of human Sts-1 (Sts-1HP) (human) (UniProt Q8TF42); test: crystal structure

T1 sequence (Q8TF42 380-647): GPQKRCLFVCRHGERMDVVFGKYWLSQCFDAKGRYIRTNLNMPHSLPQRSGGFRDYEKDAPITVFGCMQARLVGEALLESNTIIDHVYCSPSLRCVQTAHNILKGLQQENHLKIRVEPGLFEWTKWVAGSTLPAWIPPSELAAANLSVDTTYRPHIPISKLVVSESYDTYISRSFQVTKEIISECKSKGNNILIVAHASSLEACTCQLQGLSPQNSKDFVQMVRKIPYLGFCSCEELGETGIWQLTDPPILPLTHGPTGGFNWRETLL
Full-length Sts-1, sequence (Q8TF42 whole entry, the tested form may be a part): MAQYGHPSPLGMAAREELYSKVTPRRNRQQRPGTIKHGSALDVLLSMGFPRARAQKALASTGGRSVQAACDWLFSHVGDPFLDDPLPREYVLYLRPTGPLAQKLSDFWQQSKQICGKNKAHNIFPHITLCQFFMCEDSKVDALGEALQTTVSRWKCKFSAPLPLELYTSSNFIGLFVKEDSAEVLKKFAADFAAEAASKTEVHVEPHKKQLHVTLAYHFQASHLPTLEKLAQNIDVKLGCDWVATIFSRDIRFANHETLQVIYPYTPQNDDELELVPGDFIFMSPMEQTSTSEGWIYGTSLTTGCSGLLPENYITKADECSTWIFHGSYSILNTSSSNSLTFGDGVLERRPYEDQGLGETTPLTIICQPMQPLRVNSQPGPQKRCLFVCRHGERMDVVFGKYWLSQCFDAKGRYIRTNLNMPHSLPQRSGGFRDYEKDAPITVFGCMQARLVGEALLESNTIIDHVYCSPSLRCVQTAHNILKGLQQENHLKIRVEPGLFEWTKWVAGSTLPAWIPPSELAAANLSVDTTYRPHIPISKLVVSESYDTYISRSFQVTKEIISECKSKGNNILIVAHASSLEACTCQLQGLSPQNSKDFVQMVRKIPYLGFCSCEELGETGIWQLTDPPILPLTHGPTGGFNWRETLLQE

Row | Compound | Km (human Sts-1HP [1]) | kcat (human Sts-1HP [1]) | Km (human Sts-2HP) | kcat (human Sts-2HP) | inhibition of Sts-1HP phosphatase activity (in words) (human Sts-1HP [2]) | other results
1 | Cc1cc(=O)oc2c(F)c(OP(=O)(O)O)c(F)cc12 [DifMUP, 6,8-Difluoro-4-Methylumbelliferyl Phosphate] | 2 µM | 100.68 s⁻¹ | 850 ± 230 µM | 4.92 ± 0.76 s⁻¹ | – | –
2 | CN(N=O)c1ccc(O)c(O)c1 [Methyl-dephostatin, methyl-3,4-dephostatin] | – | – | – | – | not affected | IC50 (PTP-1B): 3.5 µM
3 | COc1ccc2c(c1)Oc1cc(OP(=O)(O)O)ccc1C21OC(=O)c2ccccc21 (stereo not drawn) [OMFP, 3-O-Methylfluorescein phosphate] | 190 ± 30 µM | 786.1 ± 52.4 s⁻¹ | 1070 ± 240 µM | 5.86 ± 0.78 s⁻¹ | – | –
4 | O=C1C(=NNc2ccc(S(=O)(=O)O)cc2)C(c2ccc([N+](=O)[O-])cc2)=NN1c1ccccc1 [PHPS1, 4-[2-[1,5-dihydro-3-(4-nitrophenyl)-5-oxo-1-phenyl-4H-pyrazol-4-ylidene]hydrazinyl]-benzenesulfonic acid] | – | – | – | – | potent competitive inhibitor | IC50 (PTP-1B): 19 µM
5 | Nc1ccc(S(=O)(=O)O)cc1 [Sulfanilic acid] | – | – | – | – | modest inhibitor | –
6 | O=[N+]([O-])c1ccc(OP(=O)(O)O)cc1 [pNPP, para-nitrophenyl phosphate] | 2640 ± 480 µM | 13.62 ± 0.63 s⁻¹ | 5610 ± 1690 µM | 1.23 ± 0.15 s⁻¹ | – | Km (Full-length Sts-1): 3310 ± 270 µM; kcat (Full-length Sts-1): 158.6 ± 6.48 s⁻¹
7 | O=P(O)(O)OC(CO)CO [β-glycerophosphate] | – | – | – | – | did not show any observable level of inhibition | –
8 | histidine phosphatase domain of human Sts-1 (Sts-1HP) (from UniProt Q8TF42 369-636) (domain or fragment) | – | – | – | – | – | stoichiometry N [3]: 2
